In ChEMBL document CHEMBL1201862, “PubChem BioAssay data set” (2004):
Each block holds one compound with its values, some of them ahead of it. The source made the active and inactive calls.

What was measured:
[1] = molecular target: Aryl hydrocarbon receptor (Homo sapiens, UniProt P35869); details: Potency;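 further: confirmatory quantitative high-throughput screen measuring activation of the AhR signaling pathway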
[2] = molecular target: T1, Low molecular weight phosphotyrosine protein phosphatase (Homo sapiens, UniProt P24666); format: functional; details: read-out: IC50_Mean
T1 sequence (P24666 whole entry): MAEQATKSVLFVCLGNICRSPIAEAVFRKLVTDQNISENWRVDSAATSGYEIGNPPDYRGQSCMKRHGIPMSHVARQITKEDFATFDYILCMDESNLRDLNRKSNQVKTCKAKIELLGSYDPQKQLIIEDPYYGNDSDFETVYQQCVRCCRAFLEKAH

[3] = molecular target: T1, Low molecular weight phosphotyrosine protein phosphatase; format: functional; details: read-out: IC50_Mean; remark: listed apart in the source
[4] = molecular target: Ras and Rab interactor 1/Tyrosine-protein kinase ABL1 (Homo sapiens, UniProt P00519+Q13671); format: functional;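 further: biochemical TR-FRET dose-response test measuring inhibition of binding between Rin1 and Abl proteins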
[5] = miR-122 activators in hepatoma reporter cells, dose response, cell-based, Huh7 psiCHECK-miR122, Renilla luciferase, cherry-picked (AID 651956); format: functional;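 further: huh7 hepatoma cells stably carrying a psiCHECK-2 miR-122 sensor plasmid; renilla luciferase signal reporting endogenous miR-122 activity after 48 h compound exposure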
[6] = inhibitors of TNFa-stimulated NF-kB luciferase reporter, dose response, selectivity assay for EBV LMP1 NF-kB inhibitor project, HEK293 LMP1 reporter cells, dry powder, set 2 (AID 624369); format: functional
[7] = HEK293 cell viability, dose response, counter-screen for EBV LMP1 inhibitor project, dry powder, set 2 (AID 624374); format: functional
[8] = lymphoblastoid cell cytotoxicity, dose response, cytotoxicity control, plate reader, dry powder, set 2 (AID 624367); format: functional
Paired box protein Pax-8 = Paired box protein Pax-8 (Homo sapiens, UniProt Q06710); test: inhibitors of PAX8-driven TPO luciferase reporter, dose response, RMG-I cells, cherry-pick (AID 687027); format: functional, cell-based;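 further: luciferase reporter driven by Pax8 target thyroperoxidase promoter measured by SteadyGlo luminescence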
[9] = IGROV1 ovarian cancer cell cytotoxicity, dose response, PAX8 inhibitor project, plate reader, dry powder samples (AID 743043); format: functional, cell-based; details: IGROV-1
[10] = molecular target: Mitochondrial peptide methionine sulfoxide reductase (Bos taurus, UniProt P54149); test: Absorbance-based biochemical high throughput dose response assay for activators of Methionine sulfoxide reductase A (MsrA).; format: functional
[11] = molecular target: T2, Small ubiquitin-related modifier 1 (Homo sapiens, UniProt P63165); test: inhibitors of SUMO1 peptide binding, dose response, biochemical, fluorescence polarization, uHTS hits (AID 624382); format: functional; details: read-out: IC50_Mean
[12] = molecular target: T2, Small ubiquitin-related modifier 1; test: inhibitors of SUMO1 partner interactions, dose response, biochemical, FRET (AID 624383); format: functional; details: read-out: IC50_Mean
[13] = molecular target: Arf-GAP with SH3 domain, ANK repeat and PH domain-containing protein 1 (Homo sapiens, UniProt Q9ULH1); format: functional;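 further: biochemical fluorescence polarization dose–response screen measuring inhibition of ASAP1; ASAP1 GAP domain stimulating GTP hydrolysis by truncated human ARF1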
Sequence of Arf-GAP with SH3 domain, ANK repeat and PH domain-containing protein 1 (Q9ULH1 whole entry, the tested form may be a part): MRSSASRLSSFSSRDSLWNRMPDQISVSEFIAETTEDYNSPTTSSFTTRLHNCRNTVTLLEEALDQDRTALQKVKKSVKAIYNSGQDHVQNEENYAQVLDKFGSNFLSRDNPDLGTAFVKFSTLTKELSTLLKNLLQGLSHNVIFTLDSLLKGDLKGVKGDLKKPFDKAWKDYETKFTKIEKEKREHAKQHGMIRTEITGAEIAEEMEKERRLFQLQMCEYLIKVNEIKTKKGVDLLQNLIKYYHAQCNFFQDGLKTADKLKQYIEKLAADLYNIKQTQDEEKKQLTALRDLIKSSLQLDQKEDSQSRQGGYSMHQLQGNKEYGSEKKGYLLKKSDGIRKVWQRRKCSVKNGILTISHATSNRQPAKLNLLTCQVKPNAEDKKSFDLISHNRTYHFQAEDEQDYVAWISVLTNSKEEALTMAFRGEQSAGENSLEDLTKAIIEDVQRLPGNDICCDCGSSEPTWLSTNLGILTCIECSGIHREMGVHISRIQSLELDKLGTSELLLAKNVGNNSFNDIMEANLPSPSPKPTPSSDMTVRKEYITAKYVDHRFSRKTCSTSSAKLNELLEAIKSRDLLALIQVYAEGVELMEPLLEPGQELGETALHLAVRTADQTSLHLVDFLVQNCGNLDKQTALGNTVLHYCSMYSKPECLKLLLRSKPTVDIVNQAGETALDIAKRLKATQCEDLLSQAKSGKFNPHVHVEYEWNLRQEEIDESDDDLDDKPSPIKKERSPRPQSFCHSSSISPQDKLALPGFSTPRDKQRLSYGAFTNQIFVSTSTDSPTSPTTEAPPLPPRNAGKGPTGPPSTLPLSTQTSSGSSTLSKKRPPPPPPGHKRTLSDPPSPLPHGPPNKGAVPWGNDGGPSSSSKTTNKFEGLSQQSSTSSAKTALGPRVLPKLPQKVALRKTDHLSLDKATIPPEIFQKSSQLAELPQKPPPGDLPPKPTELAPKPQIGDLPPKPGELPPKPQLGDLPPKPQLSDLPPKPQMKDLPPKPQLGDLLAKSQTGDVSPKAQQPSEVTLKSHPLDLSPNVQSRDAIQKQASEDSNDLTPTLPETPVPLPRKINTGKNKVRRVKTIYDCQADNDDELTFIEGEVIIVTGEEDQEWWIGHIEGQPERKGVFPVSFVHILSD

T2 sequence (P63165 whole entry): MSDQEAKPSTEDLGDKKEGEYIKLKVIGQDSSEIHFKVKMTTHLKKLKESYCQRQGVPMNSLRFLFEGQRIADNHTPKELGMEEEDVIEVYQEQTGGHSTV
Sequence of Ras and Rab interactor 1/Tyrosine-protein kinase ABL1 (P00519 whole entry): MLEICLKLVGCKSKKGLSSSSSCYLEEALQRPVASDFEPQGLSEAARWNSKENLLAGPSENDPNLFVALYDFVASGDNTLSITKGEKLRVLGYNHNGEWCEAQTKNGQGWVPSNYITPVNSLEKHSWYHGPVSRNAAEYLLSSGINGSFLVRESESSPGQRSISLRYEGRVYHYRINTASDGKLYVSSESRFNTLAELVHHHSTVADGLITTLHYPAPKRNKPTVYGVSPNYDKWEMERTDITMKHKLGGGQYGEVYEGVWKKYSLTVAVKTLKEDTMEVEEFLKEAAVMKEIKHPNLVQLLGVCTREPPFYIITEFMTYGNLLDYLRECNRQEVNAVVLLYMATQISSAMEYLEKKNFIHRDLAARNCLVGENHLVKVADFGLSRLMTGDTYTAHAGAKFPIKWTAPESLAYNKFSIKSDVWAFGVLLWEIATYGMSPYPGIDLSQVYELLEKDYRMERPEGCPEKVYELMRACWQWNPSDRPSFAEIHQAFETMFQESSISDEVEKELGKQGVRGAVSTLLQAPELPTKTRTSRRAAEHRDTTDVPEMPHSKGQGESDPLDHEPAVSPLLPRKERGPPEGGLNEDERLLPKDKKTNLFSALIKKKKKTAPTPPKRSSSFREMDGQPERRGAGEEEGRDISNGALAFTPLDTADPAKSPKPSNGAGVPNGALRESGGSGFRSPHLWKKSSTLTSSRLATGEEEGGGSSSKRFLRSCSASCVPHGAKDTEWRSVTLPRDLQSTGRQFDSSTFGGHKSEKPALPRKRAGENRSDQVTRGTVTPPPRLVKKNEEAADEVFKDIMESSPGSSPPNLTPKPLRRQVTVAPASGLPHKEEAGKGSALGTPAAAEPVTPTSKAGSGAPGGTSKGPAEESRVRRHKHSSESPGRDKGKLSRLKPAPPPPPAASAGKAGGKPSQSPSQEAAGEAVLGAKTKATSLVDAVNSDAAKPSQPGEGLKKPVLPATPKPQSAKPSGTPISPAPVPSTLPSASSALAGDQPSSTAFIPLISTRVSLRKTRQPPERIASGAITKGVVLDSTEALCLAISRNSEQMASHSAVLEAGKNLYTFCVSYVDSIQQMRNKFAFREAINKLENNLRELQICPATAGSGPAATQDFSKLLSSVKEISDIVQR
Sequence of Ras and Rab interactor 1/Tyrosine-protein kinase ABL1 (Q13671 whole entry): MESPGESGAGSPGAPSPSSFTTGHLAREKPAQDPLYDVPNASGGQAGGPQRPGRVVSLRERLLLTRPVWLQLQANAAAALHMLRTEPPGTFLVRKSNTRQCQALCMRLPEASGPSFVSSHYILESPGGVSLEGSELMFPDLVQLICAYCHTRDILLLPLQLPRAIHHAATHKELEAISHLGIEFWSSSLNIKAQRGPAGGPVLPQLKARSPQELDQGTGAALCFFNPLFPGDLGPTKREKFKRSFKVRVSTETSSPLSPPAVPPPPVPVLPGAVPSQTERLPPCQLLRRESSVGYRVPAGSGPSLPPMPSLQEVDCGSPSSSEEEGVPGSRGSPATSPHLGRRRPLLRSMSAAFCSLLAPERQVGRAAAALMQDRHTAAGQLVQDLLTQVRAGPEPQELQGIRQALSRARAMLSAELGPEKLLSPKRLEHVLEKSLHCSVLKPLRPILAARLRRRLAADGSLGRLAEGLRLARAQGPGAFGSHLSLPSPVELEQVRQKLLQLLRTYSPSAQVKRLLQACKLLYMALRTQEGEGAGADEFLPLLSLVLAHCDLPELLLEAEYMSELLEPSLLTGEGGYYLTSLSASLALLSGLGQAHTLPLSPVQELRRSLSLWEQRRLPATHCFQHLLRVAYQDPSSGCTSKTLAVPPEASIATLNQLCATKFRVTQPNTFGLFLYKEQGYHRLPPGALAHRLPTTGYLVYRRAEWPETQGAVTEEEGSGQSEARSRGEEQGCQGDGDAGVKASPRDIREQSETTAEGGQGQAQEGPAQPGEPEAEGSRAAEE
Sequence of Mitochondrial peptide methionine sulfoxide reductase (P54149 whole entry): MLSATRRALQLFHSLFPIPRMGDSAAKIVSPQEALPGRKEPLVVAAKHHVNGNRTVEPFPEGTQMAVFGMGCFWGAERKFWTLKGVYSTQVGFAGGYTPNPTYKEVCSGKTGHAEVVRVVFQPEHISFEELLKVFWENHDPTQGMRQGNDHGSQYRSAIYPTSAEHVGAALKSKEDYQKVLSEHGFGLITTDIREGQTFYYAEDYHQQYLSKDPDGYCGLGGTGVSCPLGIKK
Sequence of Paired box protein Pax-8 (Q06710 whole entry): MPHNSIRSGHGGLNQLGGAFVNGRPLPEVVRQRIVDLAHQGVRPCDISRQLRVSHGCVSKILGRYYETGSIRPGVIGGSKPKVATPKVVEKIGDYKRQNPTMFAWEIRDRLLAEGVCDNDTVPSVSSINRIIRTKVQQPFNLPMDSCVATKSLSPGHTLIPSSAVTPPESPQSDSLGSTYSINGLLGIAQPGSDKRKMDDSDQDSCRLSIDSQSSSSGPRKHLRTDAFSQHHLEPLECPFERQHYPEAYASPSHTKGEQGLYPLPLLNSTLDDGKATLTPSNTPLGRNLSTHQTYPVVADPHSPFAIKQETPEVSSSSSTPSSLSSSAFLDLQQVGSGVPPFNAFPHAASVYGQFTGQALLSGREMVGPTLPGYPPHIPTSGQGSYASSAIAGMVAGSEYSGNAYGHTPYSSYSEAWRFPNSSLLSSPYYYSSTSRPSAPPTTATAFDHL
Sequence of Aryl hydrocarbon receptor (P35869 whole entry): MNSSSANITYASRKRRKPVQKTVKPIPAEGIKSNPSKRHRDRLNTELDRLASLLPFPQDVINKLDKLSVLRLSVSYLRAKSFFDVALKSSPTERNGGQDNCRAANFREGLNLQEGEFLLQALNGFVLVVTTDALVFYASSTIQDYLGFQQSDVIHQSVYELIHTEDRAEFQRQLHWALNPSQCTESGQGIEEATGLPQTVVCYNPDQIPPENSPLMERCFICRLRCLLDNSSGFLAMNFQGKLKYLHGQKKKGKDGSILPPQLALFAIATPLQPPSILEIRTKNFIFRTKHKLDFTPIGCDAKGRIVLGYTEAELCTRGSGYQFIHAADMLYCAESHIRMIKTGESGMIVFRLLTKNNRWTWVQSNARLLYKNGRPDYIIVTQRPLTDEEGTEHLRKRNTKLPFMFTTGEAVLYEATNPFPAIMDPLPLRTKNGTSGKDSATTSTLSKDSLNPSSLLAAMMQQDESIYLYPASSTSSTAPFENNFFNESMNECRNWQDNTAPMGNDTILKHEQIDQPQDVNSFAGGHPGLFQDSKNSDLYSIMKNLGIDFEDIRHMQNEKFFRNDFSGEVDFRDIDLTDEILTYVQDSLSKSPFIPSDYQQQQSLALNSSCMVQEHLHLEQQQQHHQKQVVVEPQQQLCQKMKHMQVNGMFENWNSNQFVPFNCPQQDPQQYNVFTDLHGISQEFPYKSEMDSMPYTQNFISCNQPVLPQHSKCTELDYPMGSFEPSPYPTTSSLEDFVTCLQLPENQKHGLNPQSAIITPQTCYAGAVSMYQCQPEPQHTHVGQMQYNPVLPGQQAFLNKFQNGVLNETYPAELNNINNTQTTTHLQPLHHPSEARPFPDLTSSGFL

SMILES: CNC(=O)C[C@@H]1CC[C@@H]2[C@@H](COc3ccc(NC(=O)Nc4ccc(F)c(F)c4)cc3C(=O)N2C)O1
- AC50 [5]: 4.95 µM (active)

SMILES: O=C(C[C@H]1CC[C@H]2[C@@H](COC[C@@H](O)CN2Cc2ccc3c(c2)OCO3)O1)Nc1ccc(-c2ccccc2)cc1
- AbsAC35 [6]: 57.32 µM
- AbsAC35 [7]: 148.97 µM
- AbsAC35 [8]: 77.89 µM
- AC50 (Paired box protein Pax-8): 5.67 µM (active)
- AC50 [9]: 63.5 µM (active)

SMILES: COc1cc(/C=N/NC(=O)c2ccc(O)cc2)ccc1OCC(=O)Nc1cccc([N+](=O)[O-])c1
- IC50 [11]: > 66.6 µM (inactive)
- IC50 [12]: 3.86 µM (active)
- IC50 [13]: 25.3 µM (inactive)

The next lines start with the values.

- AC50 [1]: 50.1 µM (inconclusive)
SMILES: O=C(O)C1(C(=O)Nc2ccc(Cl)cc2Cl)CC1

- IC50 [2]: 12.3 µM (active)
- IC50 [3]: 11.7 µM (active)
SMILES: Cc1nc(N)nc(N)c1-c1ccc([N+](=O)[O-])cc1

- IC50 [4]: 2.22 µM (active)
SMILES: CCN(CC(=O)Nc1ccc(NC(C)=O)cc1)C(=O)c1ccccc1SCc1c(C)noc1C

- EC50 [10]: > 104 µM (inactive)
SMILES: CO/N=C/c1ccc(N2CCCC2)c([N+](=O)[O-])c1
